Data as given in ChEMBL document CHEMBL1201862, “PubChem BioAssay data set” (2004).
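Values below derive from 48-hour exposures of cells grown in 96-well plates, with endpoints linearly interpolated between the two concentrations bracketing the appropriate inhibition level. GI50 = concentration required for 50% inhibition of growth.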 Activity calls are given as the source filed them. Cut-off read from the data, not from the text of the source: active = GI50 up to about 1.1 µM and inactive = higher.

Tests used:
Assay in all cases: NCI tumour cell line growth inhibition, 48 h
ACHN = test system: ACHN
COLO 205 = test system: COLO 205
EKVX = test system: EKVX
HCC 2998 = test system: HCC 2998
HCT-116 = test system: HCT-116
HCT-15 = test system: HCT-15
HL-60 = test system: HL-60
HOP-62 = test system: HOP-62
IGROV-1 = test system: IGROV-1
K562 = test system: K562
KM12 = test system: KM12
M14 = test system: M14
MCF7 = test system: MCF7
MDA-MB-231 = test system: MDA-MB-231
MDA-MB-435 = test system: MDA-MB-435
MDA-N = test system: MDA-N
MOLT-4 = test system: MOLT-4
NCI-H522 = test system: NCI-H522
NCI/ADR-RES = test system: NCI/ADR-RES
OVCAR-5 = test system: OVCAR-5
OVCAR-8 = test system: OVCAR-8
PC-3 = test system: PC-3
RPMI-8226 = test system: RPMI-8226
SF-268 = test system: SF-268
SF-295 = test system: SF-295
SF-539 = test system: SF-539
SK-MEL-28 = test system: SK-MEL-28
SK-MEL-5 = test system: SK-MEL-5
SK-OV-3 = test system: SK-OV-3
SN12C = test system: SN12C
SNB-19 = test system: SNB-19
SNB-75 = test system: SNB-75
SR = test system: SR
SW-620 = test system: SW-620
T47D = test system: T47D
TK-10 = test system: TK-10
U-251 = test system: U-251
UACC-257 = test system: UACC-257
UO-31 = test system: UO-31
786-0 = test system: 786-0
A498 = test system: A498
A549 = test system: A549
CAKI-1 = test system: CAKI-1
CCRF-CEM = test system: CCRF-CEM
DU-145 = test system: DU-145
HOP-92 = test system: HOP-92
HT-29 = test system: HT-29
Hs-578T = test system: Hs-578T
LOX IMVI = test system: LOX IMVI
Malme-3M = test system: Malme-3M
NCI-H226 = test system: NCI-H226
NCI-H23 = test system: NCI-H23
NCI-H460 = test system: NCI-H460
OVCAR-3 = test system: OVCAR-3
OVCAR-4 = test system: OVCAR-4
RXF 393 = test system: RXF 393
SK-MEL-2 = test system: SK-MEL-2
UACC-62 = test system: UACC-62

O=c1c2ccccc2nc2n1CCc1c-2[nH]c2cc3c(cc12)OCO3 was tested, and the GI50 (ACHN) was 3.98 µM (inactive), the GI50 (COLO 205) was > 25 µM (inactive) and the GI50 (EKVX) was > 25 µM (inactive). The GI50 (HCC 2998) was > 25 µM (inactive), the GI50 (HCT-116) was 3.32 µM (inactive) and the GI50 (HCT-15) was 8.65 µM. For the same molecule, the GI50 (HL-60) was > 25 µM (inactive), the GI50 (HOP-62) was 9.42 µM (inactive) and the GI50 (IGROV-1) was > 25 µM (inactive). The GI50 (K562) was > 25 µM (inactive), the GI50 (KM12) was 15.7 µM (inactive) and the GI50 (M14) was > 25 µM (inactive). The GI50 (MCF7) was > 25 µM (inactive), the GI50 (MDA-MB-231) was 9.71 µM (inactive) and the GI50 (MDA-MB-435) was 13.6 µM (inactive). For the same molecule, the GI50 (MDA-N) was 17.6 µM (inactive), the GI50 (MOLT-4) was > 25 µM (inactive) and the GI50 (NCI-H522) was 5.4 µM (inactive). For the same molecule, the GI50 (NCI/ADR-RES) was > 25 µM (inactive), the GI50 (OVCAR-5) was > 25 µM (inactive) and the GI50 (OVCAR-8) was 5.74 µM (inactive). The GI50 (PC-3) was > 25 µM (inactive), the GI50 (RPMI-8226) was > 25 µM (inactive) and the GI50 (SF-268) was 5.41 µM (inactive). The GI50 (SF-295) was 5.55 µM (inactive), the GI50 (SF-539) was 5.77 µM (inactive) and the GI50 (SK-MEL-28) was > 25 µM (inactive). For the same molecule, the GI50 (SK-MEL-5) was 13.7 µM (inactive), the GI50 (SK-OV-3) was 6.95 µM (inactive) and the GI50 (SN12C) was > 25 µM (inactive). The GI50 (SNB-19) was 5.11 µM (inactive), the GI50 (SNB-75) was 6.61 µM (inactive) and the GI50 (SR) was > 25 µM (inactive). The GI50 (SW-620) was > 25 µM (inactive), the GI50 (T47D) was > 25 µM (inactive) and the GI50 (TK-10) was > 25 µM (inactive). For the same molecule, the GI50 (U-251) was 7.28 µM (inactive), the GI50 (UACC-257) was > 25 µM (inactive) and the GI50 (UO-31) was > 25 µM (inactive).
In the case of COC1=CCC2=C(CCN(C(=O)C3CC3)C2Cc2ccc(OC)c(O)c2)C1 (configuration not stated), the GI50 (786-0) is reported as 92.9 µM (inactive), the GI50 (A498) is reported as 68.5 µM (inactive) and the GI50 (A549) is reported as 63.4 µM (inactive). For the same molecule, the GI50 (ACHN) was > 100 µM (inactive), the GI50 (CAKI-1) was 83.4 µM (inactive) and the GI50 (CCRF-CEM) was 34 µM (inactive). For the same molecule, the GI50 (COLO 205) was 51.5 µM (inactive), the GI50 (DU-145) was > 100 µM (inactive) and the GI50 (EKVX) was 47.1 µM (inactive). The GI50 (HCC 2998) was 35.1 µM (inactive), the GI50 (HCT-116) was 36.6 µM (inactive) and the GI50 (HCT-15) was 22.1 µM. For the same molecule, the GI50 (HL-60) was 26.7 µM (inactive), the GI50 (HOP-62) was 61.8 µM (inactive) and the GI50 (HOP-92) was 27.9 µM (inactive). For the same molecule, the GI50 (HT-29) was 45.9 µM (inactive), the GI50 (Hs-578T) was 69.2 µM (inactive) and the GI50 (IGROV-1) was 52 µM (inactive). The GI50 (K562) was 25.8 µM (inactive), the GI50 (KM12) was 37.2 µM (inactive) and the GI50 (LOX IMVI) was 86.7 µM (inactive). For the same molecule, the GI50 (M14) was 45 µM (inactive), the GI50 (MCF7) was 33.2 µM (inactive) and the GI50 (MDA-MB-231) was 63.2 µM (inactive). For the same molecule, the GI50 (MDA-MB-435) was 23.9 µM (inactive), the GI50 (MOLT-4) was 8.67 µM (inactive) and the GI50 (Malme-3M) was 88.9 µM (inactive). For the same molecule, the GI50 (NCI-H226) was 89.3 µM (inactive), the GI50 (NCI-H23) was 26.7 µM (inactive) and the GI50 (NCI-H460) was 42 µM (inactive). The GI50 (NCI-H522) was 28.8 µM (inactive), the GI50 (NCI/ADR-RES) was 19 µM (inactive) and the GI50 (OVCAR-3) was 45.4 µM (inactive). For the same molecule, the GI50 (OVCAR-4) was 42.5 µM (inactive), the GI50 (OVCAR-5) was > 100 µM (inactive) and the GI50 (OVCAR-8) was 34 µM (inactive). For the same molecule, the GI50 (PC-3) was 35.6 µM (inactive), the GI50 (RPMI-8226) was 34.2 µM (inactive) and the GI50 (RXF 393) was 13.5 µM (inactive). The GI50 (SF-268) was 51.1 µM (inactive), the GI50 (SF-295) was 57.8 µM (inactive) and the GI50 (SF-539) was 67 µM (inactive). For the same molecule, the GI50 (SK-MEL-28) was 31.8 µM (inactive), the GI50 (SK-MEL-2) was 38.3 µM (inactive) and the GI50 (SK-MEL-5) was 28.6 µM (inactive). For the same molecule, the GI50 (SK-OV-3) was > 100 µM (inactive), the GI50 (SN12C) was 49.3 µM (inactive) and the GI50 (SNB-19) was > 100 µM (inactive). The GI50 (SNB-75) was 14.9 µM (inactive), the GI50 (SR) was 4.8 µM (inactive) and the GI50 (SW-620) was 29 µM (inactive). For the same molecule, the GI50 (T47D) was 21 µM (inactive), the GI50 (TK-10) was 67.1 µM (inactive) and the GI50 (U-251) was 86.7 µM (inactive). For the same molecule, the GI50 (UACC-257) was 47.9 µM (inactive), the GI50 (UACC-62) was 48.8 µM (inactive) and the GI50 (UO-31) was > 100 µM (inactive).
In the case of CC1(C)CC(=O)c2c(nc3c(ccc4ccccc43)c2-c2ccc(NC(=O)CCCC(=O)Nc3ccc(-c4c5c(nc6c4ccc4ccccc46)CC(C)(C)CC5=O)cc3)cc2)C1, the GI50 (786-0) is reported as > 100 µM (inactive), the GI50 (A549) is reported as > 100 µM (inactive) and the GI50 (ACHN) is reported as > 100 µM (inactive). For the same molecule, the GI50 (CAKI-1) was > 100 µM (inactive), the GI50 (CCRF-CEM) was > 100 µM (inactive) and the GI50 (COLO 205) was > 100 µM (inactive). For the same molecule, the GI50 (DU-145) was > 100 µM (inactive), the GI50 (EKVX) was > 100 µM (inactive) and the GI50 (HCT-116) was > 100 µM (inactive). The GI50 (HCT-15) was 46.5 µM, the GI50 (HL-60) was > 100 µM (inactive) and the GI50 (HOP-62) was > 100 µM (inactive). The GI50 (HT-29) was > 100 µM (inactive), the GI50 (Hs-578T) was > 100 µM (inactive) and the GI50 (IGROV-1) was 58.5 µM (inactive). For the same molecule, the GI50 (K562) was > 100 µM (inactive), the GI50 (KM12) was > 100 µM (inactive) and the GI50 (LOX IMVI) was > 100 µM (inactive). For the same molecule, the GI50 (M14) was > 100 µM (inactive), the GI50 (MCF7) was > 100 µM (inactive) and the GI50 (MDA-MB-231) was > 100 µM (inactive). The GI50 (MDA-MB-435) was > 100 µM (inactive), the GI50 (MDA-N) was > 100 µM (inactive) and the GI50 (MOLT-4) was > 100 µM (inactive). For the same molecule, the GI50 (NCI-H226) was > 100 µM (inactive), the GI50 (NCI-H460) was > 100 µM (inactive) and the GI50 (NCI-H522) was > 100 µM (inactive). The GI50 (NCI/ADR-RES) was > 100 µM (inactive), the GI50 (OVCAR-3) was > 100 µM (inactive) and the GI50 (OVCAR-5) was > 100 µM (inactive). The GI50 (OVCAR-8) was > 100 µM (inactive), the GI50 (PC-3) was > 100 µM (inactive) and the GI50 (RPMI-8226) was > 100 µM (inactive). The GI50 (RXF 393) was > 100 µM (inactive), the GI50 (SF-268) was > 100 µM (inactive) and the GI50 (SF-295) was > 100 µM (inactive). The GI50 (SF-539) was > 100 µM (inactive), the GI50 (SK-MEL-28) was > 100 µM (inactive) and the GI50 (SK-MEL-2) was > 100 µM (inactive). The GI50 (SK-MEL-5) was > 100 µM (inactive), the GI50 (SK-OV-3) was > 100 µM (inactive) and the GI50 (SN12C) was > 100 µM (inactive). For the same molecule, the GI50 (SNB-19) was > 100 µM (inactive), the GI50 (SNB-75) was > 100 µM (inactive) and the GI50 (SR) was > 100 µM (inactive). The GI50 (SW-620) was > 100 µM (inactive), the GI50 (T47D) was > 100 µM (inactive) and the GI50 (TK-10) was > 100 µM (inactive). The GI50 (U-251) was > 100 µM (inactive), the GI50 (UACC-257) was > 100 µM (inactive) and the GI50 (UO-31) was > 100 µM (inactive).
